BindingDB's records for doi:10.1016/j.bmcl.2011.11.008 (Korea Research Institute of Bioscience and Biotechnology, 2011)

Experiments:
[1] = Inhibition of PRL-3-mediated cell migration in human DLD1 cells after 15 hrs by crystal violet staining based microscopic assay
[2] = Inhibition of PRL-3-mediated cell invasion in human DLD1 cells after 20 hrs using crystal violet staining by Matrigel invasion assay

Molecule `Cc1cc(O)c2c(c1)C(=O)c1cc(O)cc(O)c1C2=O` [1,3,8-trihydroxy-6-methylanthra-9,10-quinone] has an IC50 [1] of 28 µM and an IC50 [2] of 35 µM.
